From patent US6610883B1, “Compounds having selective activity for retinoid X receptors, and means for modulation of processes mediated by retinoid X receptors” (Ligand Pharmaceuticals, Inc., priority 1992, dated 2003)
Read-outs that look alike come from different tables or passages of the source.

How the values were obtained:
RXRβ = molecular target: T1, RXRβ (Mus musculus, UniProt P28704); assay: Co-transfection (cis-trans) assay in CV-1 cells, RXRβ; format: cell-based; conditions: RXRβ
T1 construct: expressed in transfected cells; host or cells: CV-1 (monkey kidney)
T1 sequence (P28704 1-520): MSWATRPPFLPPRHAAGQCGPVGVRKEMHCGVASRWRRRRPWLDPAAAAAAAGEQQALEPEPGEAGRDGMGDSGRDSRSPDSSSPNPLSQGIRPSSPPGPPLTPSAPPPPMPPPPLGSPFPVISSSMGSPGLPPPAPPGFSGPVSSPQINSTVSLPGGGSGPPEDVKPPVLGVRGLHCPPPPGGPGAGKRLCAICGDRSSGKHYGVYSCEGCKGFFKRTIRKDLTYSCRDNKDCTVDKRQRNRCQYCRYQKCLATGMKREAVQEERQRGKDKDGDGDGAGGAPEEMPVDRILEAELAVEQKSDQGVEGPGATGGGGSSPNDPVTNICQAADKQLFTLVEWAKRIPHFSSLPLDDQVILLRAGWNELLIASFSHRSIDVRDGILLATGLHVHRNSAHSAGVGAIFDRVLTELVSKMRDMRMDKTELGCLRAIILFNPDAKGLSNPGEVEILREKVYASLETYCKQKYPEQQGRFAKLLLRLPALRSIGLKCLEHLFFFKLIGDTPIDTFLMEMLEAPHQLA
From the text: (§1) The co-transfection assay provides a mechanism to evaluate the ability of a compound to modulate the transcription response initiated by an intracellular receptor. […] Berger, et al., J. Steroid Biochem Molec.
(§2) Briefly, the co-transfection assay involves the introduction of two plasmids by transient transfection into a retinoid receptor-negative mammalian cell background. The first plasmid contains a retinoid receptor cDNA and directs constitutive expression of the encoded receptor. The second plasmid contains a cDNA that encodes for a readily quantifiable protein, e.g., firefly luciferase or chloramphenicol acetyl transferase (CAT), under control of a promoter containing a retinoid acid response element, which confers retinoid dependence on the transcription of the reporter. In this co-transfection assay, all retinoid receptors respond to all-trans-retinoic acid in a similar fashion. This assay can be used to accurately measure efficacy and potency of retinoic acid and synthetic retinoids as ligands that interact with the individual retinoid receptor subtypes.
(§3) Accordingly, synthetic retinoid compounds of the current invention were evaluated for their interaction with retinoid receptor subtypes using the co-transfection assay in which CV-1 cells were co-transfected with one of the retinoid receptor subtypes, a reporter construct, and an internal control to allow normalization of the response for transfection efficiency. The following example is illustrative.
(§4) Retinoids: All-tans-retinoic acid (RA) and 13-cis-retinoic acid (13-cis-RA) were obtained from Sigma. […] Retinoids were dissolved in dimethylsulfoxide for use in the transcriptional activation assays.
(§5) Co-transfection Assay In CV-1 Cells: A monkey kidney cell line, CV-1, was used in the cis-trans assay. Cells were transfected with two plasmids. […] The cis-vector contains an easily assayable gene product, in this case the firefly luciferase, coupled to a retinoid-responsive promoter, i.e., an RARE or RXRE. Addition of retinoic acid or an appropriate synthetic retinoid results in the formation of a retinoid-RAR or -RXR complex that activates the expression of luciferase gene, causing light to be emitted from cell extracts. The level of luciferase activity is directly proportional to the effectiveness of the retinoid-receptor complex in activating gene expression. This sensitive and reproducible co-transfection approach permits the identification of retinoids that interact with the different receptor isoforms.
(§6) Cells were cultured in DMEM supplemented with 10% charcoal resin-stripped fetal bovine serum, and experiments were conducted in 96-well plates. […] Cells were transfected for 6 h and then washed to remove the precipitate. The cells were then incubated for 36 h with or without retinoid. After the transfection, all subsequent steps were performed on a Beckman Biomek Automated Workstation. […] All determinations were performed in triplicate in two independent experiments and were normalized for transfection efficiency by using β-galactosidase as the internal control. […] Efficacy values less than 5% are not statistically different than the 0% background.

RXRγ = molecular target: T2, RXRγ (Mus musculus, UniProt P28705); assay: Co-transfection (cis-trans) assay in CV-1 cells, RXRγ; format: cell-based
T2 construct: expressed in transfected cells; host or cells: CV-1 (monkey kidney)
T2 sequence (P28705 1-463): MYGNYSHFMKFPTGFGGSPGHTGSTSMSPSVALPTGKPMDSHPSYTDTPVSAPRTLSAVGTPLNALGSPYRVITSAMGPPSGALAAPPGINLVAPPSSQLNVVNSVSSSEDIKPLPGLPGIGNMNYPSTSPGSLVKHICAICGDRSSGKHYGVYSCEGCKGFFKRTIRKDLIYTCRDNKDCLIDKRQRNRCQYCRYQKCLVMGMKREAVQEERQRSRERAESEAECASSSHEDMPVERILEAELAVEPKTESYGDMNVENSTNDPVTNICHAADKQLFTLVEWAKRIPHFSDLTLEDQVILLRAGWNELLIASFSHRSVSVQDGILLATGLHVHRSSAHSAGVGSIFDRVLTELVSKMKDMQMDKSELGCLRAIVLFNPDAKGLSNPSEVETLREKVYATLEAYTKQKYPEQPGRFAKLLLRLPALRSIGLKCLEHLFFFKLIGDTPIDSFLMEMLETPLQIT
From the text: as §1, §2, §3, §4, §5, §6

[1] = test system: myeloma cell line (RPMI 8226); assay: Thymidine incorporation in myeloma cell line RPMI 8226; format: cell-based
From the text: This assay examines the incorporation of radiolabeled thymidine into DNA, and by determining the ability of a compound to inhibit thymidine incorporation into DNA, provides a measure of cell proliferation.

RXRα = molecular target: T3, RXRα (Homo sapiens, UniProt P19793); assay: Co-transfection (cis-trans) assay in CV-1 cells, RXRα; format: cell-based; design: Emax: dose or concentration left out as unconfirmed
T3 construct: The first plasmid contains a retinoid receptor cDNA and directs constitutive expression of the encoded receptor; expressed in transfected cells; host or cells: CV-1 (monkey kidney)
T3 sequence (P19793 1-462): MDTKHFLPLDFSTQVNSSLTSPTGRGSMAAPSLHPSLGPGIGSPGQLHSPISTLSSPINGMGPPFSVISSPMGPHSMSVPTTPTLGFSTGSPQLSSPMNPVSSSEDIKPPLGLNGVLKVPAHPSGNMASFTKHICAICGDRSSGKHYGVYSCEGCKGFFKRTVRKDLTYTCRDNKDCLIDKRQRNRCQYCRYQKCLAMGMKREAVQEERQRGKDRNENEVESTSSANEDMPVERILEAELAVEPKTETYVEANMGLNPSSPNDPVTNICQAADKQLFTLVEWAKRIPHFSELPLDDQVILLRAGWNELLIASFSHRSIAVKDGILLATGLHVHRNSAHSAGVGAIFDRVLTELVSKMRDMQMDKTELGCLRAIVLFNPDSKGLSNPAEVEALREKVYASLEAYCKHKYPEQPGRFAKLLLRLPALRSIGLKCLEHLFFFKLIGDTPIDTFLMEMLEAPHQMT
From the text: as §1, §2, §3, §4, §5, §6

Rhino mice utriculi = assay: Comedolytic test on Rhino mice; conditions: 0.1% solution, topical
RAR = assay: apoA1 "A" site reporter co-transfection in HepG-2 cells, RAR
RXR = assay: apoA1 "A" site reporter co-transfection in HepG-2 cells, RXR; format: cell-based
[2] = test system: RAR subfamily (RARα, RARβ, RARγ); assay: Co-transfection assay, dose response profiles, RAR subfamily; format: cell-based; conditions: in words
From the text: as §1, §2, §3
Co-transfection Assay In CV-1 Cells: A monkey kidney cell line, CV-1, was used in the cis-trans assay. Cells were transfected with two plasmids. […] The cis-vector contains an easily assayable gene product, in this case the firefly luciferase, coupled to a retinoid-responsive promoter, i.e., an RARE or RXRE. Addition of retinoic acid or an appropriate synthetic retinoid results in the formation of a retinoid-RAR or -RXR complex that activates the expression of luciferase gene, causing light to be emitted from cell extracts. […]

skin of Rhino mice = assay: Skin irritation in Rhino mice; format: in vivo; conditions: compared with 9-cis- or all-trans-retinoic acid
RXRα/PPAR = assay: Co-transfection of RXRα and PPAR in HepG2 cells; format: cell-based
From the text: Specifically, peroxisome proliferator-activated receptor (PPAR) is a member of the intracellular receptor super family that plays a role in the modulation of lipid homeostasis. […] These agents, called peroxisome proliferators, have been used in man as hypolipidemic agents.

[3] = test system: RXR subfamily (RXRα, RXRβ, RXRγ)
From the text: as §1
as §2, with “This assay can be used to accurately measure efficacy and potency of retinoic acid and synthetic retinoids as ligands that interact with the individual retinoid receptor subtypes.” left out
as §3, with “The following example is illustrative.” left out

HL60 cells [4] = test system: HL60 cells
HL60 cells [5] = assay: HL60 differentiation (NBT reduction); format: cell-based; conditions: for EC50: Homo sapiens
[6] = rats
Description: Male Sprague-Dawley rats (160-200 gram) were obtained from Harlan. Animals were fed standard laboratory diets (Harlan/Teklad) and kept in an environmentally controlled animal house with a light period lasting from 6 a.m. to 6 p.m. Animals were treated with drugs prepared as suspensions in olive oil.
[…]
Plasma total cholesterol was measured enzymatically utilizing Boeringer Mannheim Diagnostics High Performance Cholesterol Methods with an ABBOTT VP Bichromatic Analyzer. cholesterol was measured after preparation of the HDL-containing fraction by heparin-manganese precipitation of plasma. HDL-cholesterol in this fraction was estimated as mentioned earlier. All HDL separations were checked for contamination by other lipoproteins with agarose gel electrophoresis.

[7] = test system: transglutaminase activity in the HL60 cells; assay: Transglutaminase induction in HL60 cells
apoA1 = assay: Circulating apoA1 in rats (Western Blot); conditions: 3 mg/kg orally, daily for four days
From the text: Serum samples were taken and analyzed by Western Blot using antisera specific to rat apoA1.

[8] = test system: RPMI18226, a multiple myeloma; assay: Cell growth of RPMI18226; format: cell-based, human; conditions: RPMI18226, cell number and growth in semi-solid medium
From the text: (§7) The effects on growth of these cells were monitored by evaluation of cell number, and also by evaluation of growth in semi-solid medium for the RPMI18226 cell line. […] The therapeutic index is defined as the ratio of efficacy to toxicity of a compound.

[9] = test system: ME180, a squamous cell carcinoma; assay: Cell growth of ME180; format: cell-based, human; conditions: ME180, cell number
From the text: as §7

C/C(=C\c1ccc(C(=O)O)cc1)c1ccc2c(c1)C(C)(C)CCC2(C)C [TTNPB, reference compound]
Emax at 10 µM (RXRβ; CV-1, maximal response relative to all-trans-retinoic acid at 10^−5 M, read-out: Efficacy): < 5%
EC50 (RXRβ; CV-1 cells, luciferase reporter, 36 h, read-out: Potency): > 10 µM
EC50 (RXRγ): > 10 µM
Emax at 10 µM (RXRγ; CV-1, RXRγ, maximal response relative to all-trans-retinoic acid at 10^−5 M, read-out: Efficacy): < 5%
inhibition at 10 pM ([1]; Homo sapiens, RPMI-8226): 9%
IC50 ([1]; Homo sapiens, RPMI 8226, FIG. 11, read-out: IC50, inhibition of thymidine incorporation): ~0.05 nM
Concentration with essentially no effect on cell proliferation ([1]; RPMI 8226, FIG. 11): less than 10^−11 M
Emax (RXRα; CV-1, read-out: Efficacy): < 5%
EC50 (RXRα; RXRα, CV-1 cells, luciferase reporter, 36 h, read-out: Potency): > 10 µM

C=C(c1ccc2c(c1)C(C)(C)CCC2(C)C)c1ccc(C(=O)O)cn1 [Compound 56, 2-[1-(5,5,8,8-tetramethyl-5,6,7,8-tetrahydro-2-naphthyl)ethenyl]pyridine-5-carboxylic acid]
melting point: 173 °C

Cc1cc2c(cc1C(=O)c1ccc(C(=O)O)cc1)C(C)(C)CCC2(C)C [3-methyl-TTNCB, 4-[(3,5,5,8,8-pentamethyl-5,6,7,8-tetrahydro-2-naphthyl)carbonyl]benzoic acid]
Inhibition of the utriculi diameter (Rhino mice utriculi): approximately 50%
Reporter activation via apoA1 "A" site with RAR (RAR): no effect when RAR was used in the transfection
Reporter activation via apoA1 "A" site with RXR (RXR): activation in the system
Activation of members of the RAR subfamily [2]: no significant activity for members of the RAR subfamily
Skin irritation (skin of Rhino mice): less irritating to the skin of Rhino mice than 9-cis- or all-trans-retinoic acid

CC(C)(Oc1ccc(Cl)cc1)C(=O)O [clofibric Acid, clofibric acid, reference compound]
Normalized Response (%) (RXRα/PPAR): 100%

CC1=C(/C=C/C(C)=C\C=C\C(C)=C\C(=O)O)C(C)(C)CCC1 [9-cis-retinoic acid]
Efficacy (RXRβ; maximal response relative to all-trans-retinoic acid at 10^−5 M): 140%
Activation of members of the RXR subfamily [3]: activate members of both the RAR and RXR subfamilies
Activation of members of the RAR subfamily [2]: activate members of both the RAR and RXR subfamilies

CC1=C(/C=C/C(C)=C/C=C/C(C)=C/C(=O)O)C(C)(C)CCC1 [all-trans-retinoic acid]
Activation of members of the RXR subfamily [3]: activate members of both the RAR and RXR subfamilies
Effect on cellular proliferation (thymidine incorporation) (HL60 cells [4]): inhibits thymidine incorporation
EC50 (HL60 cells [5]; HL-60, HL60, NBT reduction, read-out: EC50 for mediated differentiation): 2 µM
Activation of members of the RAR subfamily [2]: activate members of both the RAR and RXR subfamilies

C=C(c1ccc(C(=O)O)cc1)c1cc2c(cc1C)C(C)(C)CCC2(C)C [3-methyl-TTNEB, 4-[1-(3,5,5,8,8-pentamethyl-5,6,7,8-tetrahydro-2-naphthyl)ethenyl]benzoic acid]
Normalized Response (%) (RXRα/PPAR): 90%
HDL levels ([6]; 100 mg/kg i.p., 4 days): substantial and statistically significant increases in HDL levels
Development of tolerance to pharmacological action ([6]; 30 day p.o. study, 10, 30, or 100 mg/kg): did not indicate development of tolerance
Total cholesterol ([6]; four days): showed an increase due to the increase of the HDL-cholesterol fraction
Triglycerides ([6]; four days): either no change or a slight decrease
Lowest dose with significant increase of HDL-cholesterol ([6]; i.p., four days): 0.3 mg/kg
Increase of plasma HDL-cholesterol ([6]; optimally efficacious dose): greater than 60%
Induction of transglutaminase activity [7]: induce transglutaminase activity in the HL60 cells
Circulating apoA1 level (apoA1): significant increase in circulating apoA1 level
Effect on cell growth [8]: inhibit cell growth in a concentration-dependent manner
Induction of differentiation (NBT reduction) (HL60 cells [5]; HL60): not to induce undue differentiation
EC50 (HL60 cells [5]; HL-60, read-out: EC50 for mediated differentiation): > 1000 µM
Effect on cell growth [9]: inhibit cell growth in a concentration-dependent manner
